The values that follow come from patent EP0510271A1, “Novel R106 compounds” (TAKARA SHUZO CO. LTD., priority 1991, dated 1992).

*1 amine or outer side, *2 acyl side, *3 side chain or, on linkers, in order; H or OH if unused. Where a SMILES comes first, the peptide text is derived from it. [ ]: non-standard residue; d: D form. ξ: configuration not given here. NMePhe(3-F) = CN[CH](Cc1cccc(F)c1)C(=O)O; NMePhe(2-F) = CN[CH](Cc1ccccc1F)C(=O)O; Phe(3-F) = N[CH](Cc1cccc(F)c1)C(=O)O; ξNMeVal(3-OH) = CNC(C(=O)O)C(C)(C)O; Phe(2-F) = N[CH](Cc1ccccc1F)C(=O)O; NMeY = CN[CH](Cc1ccc(O)cc1)C(=O)O; NMeF = CN[CH](Cc1ccccc1)C(=O)O; X1 = CCC(C)C(O[*:1])C(=O)[*:2]; Hyp = O=C(O)[CH]1C[CH](O)CN1; NMeV = CN[CH](C(=O)O)C(C)C; NMeS = CN[CH](CO)C(=O)O; Thz = O=C(O)[CH]1CSCN1

This data set in a line: solubility in water. Particulars: compared with antibiotics R106.
Consider `CCC(C)C1NC(=O)C2CCCN2C(=O)C(Cc2ccccc2F)N(C)C(=O)C(Cc2ccccc2F)NC(=O)C(C(C)C)N(C)C(=O)C(C(C)CC)OC(=O)C(C(C)(C)O)N(C)C(=O)C(CC(C)C)NC(=O)C(C(C)C)N(C)C1=O` (stereo not drawn) [Compound 1] (cyclo([ξNMeVal(3-OH)][X1][NMeV][Phe(2-F)][NMePhe(2-F)]PI[NMeV]L); configuration not given here), for which the solubility in water result was “higher solubility in water than antibiotics R106”. As for `CCC(C)C1NC(=O)C2CCCN2C(=O)C(Cc2cccc(F)c2)N(C)C(=O)C(Cc2cccc(F)c2)NC(=O)C(C(C)C)N(C)C(=O)C(C(C)CC)OC(=O)C(C(C)(C)O)N(C)C(=O)C(CC(C)C)NC(=O)C(C(C)C)N(C)C1=O` (stereo not drawn) [Compound 2] (cyclo([ξNMeVal(3-OH)][X1][NMeV][Phe(3-F)][NMePhe(3-F)]PI[NMeV]L); configuration not given here), the solubility in water entry is “higher solubility in water than antibiotics R106”.

As to `CCC(C)C1NC(=O)C2CCCN2C(=O)C(Cc2ccc(O)cc2)N(C)C(=O)C(Cc2ccc(O)cc2)NC(=O)C(C(C)C)N(C)C(=O)C(C(C)CC)OC(=O)C(C(C)(C)O)N(C)C(=O)C(CC(C)C)NC(=O)C(C(C)C)N(C)C1=O` (stereo not drawn) [Compound 3] (cyclo([ξNMeVal(3-OH)][X1][NMeV]Y[NMeY]PI[NMeV]L); configuration not given here), the solubility in water entry is “higher solubility in water than antibiotics R106”.

Turning to `CCC(C)C1NC(=O)C2CC(O)CN2C(=O)C(Cc2ccccc2)N(C)C(=O)C(Cc2ccccc2)NC(=O)C(C(C)C)N(C)C(=O)C(C(C)CC)OC(=O)C(C(C)(C)O)N(C)C(=O)C(CC(C)C)NC(=O)C(C(C)C)N(C)C1=O` (stereo not drawn) [Compound 4] (cyclo([ξNMeVal(3-OH)][X1][NMeV]F[NMeF][Hyp]I[NMeV]L); configuration not given here), the solubility in water result is “higher solubility in water than antibiotics R106”. The value for `CCC(C)C1NC(=O)C2CSCN2C(=O)C(Cc2ccccc2)N(C)C(=O)C(Cc2ccccc2)NC(=O)C(C(C)C)N(C)C(=O)C(C(C)CC)OC(=O)C(C(C)(C)O)N(C)C(=O)C(CC(C)C)NC(=O)C(C(C)C)N(C)C1=O` (stereo not drawn) [Compound 5] (cyclo([ξNMeVal(3-OH)][X1][NMeV]F[NMeF][Thz]I[NMeV]L); configuration not given here) was “higher solubility in water than antibiotics R106”; that for `CCC(C)C1NC(=O)C2CCCN2C(=O)C(CO)N(C)C(=O)C(Cc2ccccc2)NC(=O)C(C(C)C)N(C)C(=O)C(C(C)CC)OC(=O)C(C(C)(C)O)N(C)C(=O)C(CC(C)C)NC(=O)C(C(C)C)N(C)C1=O` (stereo not drawn) [Compound 9] (cyclo([ξNMeVal(3-OH)][X1][NMeV]F[NMeS]PI[NMeV]L); configuration not given here) was “higher solubility in water than antibiotics R106”.
